# According to ChEMBL document CHEMBL5543121, “Drug Repurposing of ACT001 to Discover Novel Promising Sulfide Prodrugs with Improved Safety and Potent Activity for Neutrophil-Mediated Antifungal Immunotherapy” (J Med Chem, 2024):
# Active and inactive are the calls of the source. No cut-off for these calls is given here.
# Columns and labels:
# [1] = system: Polymorphonuclear neutrophil; test: Inhibition of fungal curdlan induced CXCL2 protein expression in mouse polymorphonuclear neutrophils at 40 uM incubated for 4 hrs by ELISA; type: functional, cell-based
# [2] = Subacute toxicity in C57BL/6 mouse assessed as abnormal behavior at 100 mg/kg, po administered daily for 14 days and measured every day; type: organism-based; settings: in vivo, 336 h, time 14 day
# [3] = Half life in male Sprague-Dawley rat at 2 mg/kg, iv by LC-MS/MS analysis; type: ADME, organism-based; settings: in vivo
# [4] = Acute toxicity in C57BL/6 mouse assessed as effect on urea level in serum at 500 mg/kg, po administered as single dose and measured every day for 14 days; type: organism-based; settings: in vivo, 336 h, time 14 day
# Candida albicans [5] = test: Induction of neutrophil-mediated antifungal immunity against Candida albicans SC5314 infected in mouse assessed as reduction in accumulation of Ly6G positive neutrophils in bone marrow at 50 to 100 mg/kg, po administered once a day for 3 days; type: functional, organism-based; settings: dose 50-100 mg/kg, time 3.0 day
# [6] = Induction of apoptosis in mouse neutrophils assessed as live cells at 40 uM incubated for 16 hrs by Annexin V-FITC/PI staining based flow cytometry analysis (reference value: 46.6%); type: toxicity, cell-based, Neutrophil; settings: read-out: Activity
# Candida albicans [7] = test: Induction of neutrophil-mediated antifungal immunity against Candida albicans SC5314 infected in mouse assessed as reduction in PD-L1 positive Ly6G positive neutrophils in kidney at 50 to 100 mg/kg, po administered once a day for 3 days by flow cytometry analysis; type: functional, organism-based; settings: dose 50-100 mg/kg, time 3.0 day
# [8] = Oral bioavailability in male Sprague-Dawley rat at 10 mg/kg by LC-MS/MS analysis; type: ADME, organism-based; settings: in vivo
# [9] = Subacute toxicity in C57BL/6 mouse assessed as signs of morbidity at 100 mg/kg, po administered daily for 14 days and measured every day; type: organism-based; settings: in vivo, 336 h, time 14 day
# Candida albicans [10] = test: Induction of neutrophil-mediated antifungal immunity against Candida albicans SC5314 infected in cyclophosphamide-induced immunosuppressed C57BL/6 mouse at 50 to 100 mg/kg, po pretreated with CTX for 3 days followed by fungal infection and further administered with compound once a day for 3 days; type: functional, organism-based; settings: dose 50-100 mg/kg, time 3.0 day
# [11] = Acute toxicity in C57BL/6 mouse assessed as effect on creatinine level in serum at 500 mg/kg, po administered as single dose and measured every day for 14 days; type: organism-based; settings: in vivo, 336 h, time 14 day
# Candida albicans [12] = test: Antifungal activity against candida albicans SC5314 infected in mouse assessed as reduction in PD-L1 positive Ly6G-positive neutrophils in kidney at 200 mg/kg, po administered on day 1 and 3; type: functional, organism-based; settings: time 1-3 day
# [13] = AUC (0 to infinity) in male Sprague-Dawley rat at 10 mg/kg, po by LC-MS/MS analysis; type: ADME, organism-based; settings: in vivo
# [14] = Cmax in male Sprague-Dawley rat at 10 mg/kg, po by LC-MS/MS analysis; type: ADME, organism-based; settings: in vivo
# [15] = Tmax in male Sprague-Dawley rat at 10 mg/kg, po by LC-MS/MS analysis; type: ADME, organism-based; settings: in vivo
# [16] = Tmax in male Sprague-Dawley rat at 2 mg/kg, iv by LC-MS/MS analysis; type: ADME, organism-based; settings: in vivo
# Neutrophil [17] = test: Induction of apoptosis in mouse neutrophils assessed as late apoptotic cells at 40 uM incubated for 16 hrs by Annexin V-FITC/PI staining based flow cytometry analysis (reference value: 24.4%); type: toxicity, cell-based
# [18] = Subacute toxicity in C57BL/6 mouse assessed as animal death at 100 mg/kg, po administered daily for 14 days and measured every day; type: organism-based; settings: in vivo, 336 h, time 14 day
# [19] = Acute toxicity in C57BL/6 mouse assessed as change in kidney weight at 500 mg/kg, po administered as single dose and measured after 14 days; type: organism-based; settings: in vivo, 336 h, time 14 day
# [20] = Acute toxicity in C57BL/6 mouse assessed as signs of morbidity at 500 mg/kg, po administered as single dose and measured every day for 14 days; type: organism-based; settings: in vivo, 336 h, time 14 day
# [21] = AUC (0 to infinity) in male Sprague-Dawley rat at 2 mg/kg, iv by LC-MS/MS analysis; type: ADME, organism-based; settings: in vivo
# [22] = Subacute toxicity in C57BL/6 mouse assessed as effect on ALT level in serum at 100 mg/kg, po administered daily for 14 days and measured every day; type: organism-based; settings: in vivo, 336 h, time 14 day
# Neutrophil [23] = test: Induction of apoptosis in mouse neutrophils assessed as early apoptotic cells at 20 uM incubated for 16 hrs by Annexin V-FITC/PI staining based flow cytometry analysis (reference value: 26.9%); type: toxicity, cell-based
# Neutrophil [24] = test: Induction of apoptosis in mouse neutrophils assessed as dead cells at 20 uM incubated for 16 hrs by Annexin V-FITC/PI staining based flow cytometry analysis (reference value: 2.04%); type: toxicity, cell-based
# [25] = Subacute toxicity in C57BL/6 mouse assessed as histopathological changes in heart at 100 mg/kg, po administered daily for 14 days; type: organism-based; settings: in vivo, 336 h, time 14 day
# [26] = Subacute toxicity in C57BL/6 mouse assessed as effect on urea level in serum at 100 mg/kg, po administered daily for 14 days and measured every day; type: organism-based; settings: in vivo, 336 h, time 14 day
# Candida albicans [27] = test: Induction of neutrophil-mediated antifungal immunity against Candida albicans SC5314 infected in mouse assessed as reduction in fungal burden in kidneys at 50 to 100 mg/kg, po administered once a day for 3 days; type: functional, organism-based; settings: dose 50-100 mg/kg, time 3.0 day
# [28] = Cmax in male Sprague-Dawley rat at 2 mg/kg, iv by LC-MS/MS analysis; type: ADME, organism-based; settings: in vivo
# [29] = Acute toxicity in C57BL/6 mouse assessed as effect on AST level in serum at 500 mg/kg, po administered as single dose and measured every day for 14 days; type: organism-based; settings: in vivo, 336 h, time 14 day
# [30] = Subacute toxicity in C57BL/6 mouse assessed as effect on AST level in serum at 100 mg/kg, po administered daily for 14 days and measured every day; type: organism-based; settings: in vivo, 336 h, time 14 day
# [31] = Acute toxicity in C57BL/6 mouse assessed as change in spleen weight at 500 mg/kg, po administered as single dose and measured after 14 days; type: organism-based; settings: in vivo, 336 h, time 14 day
# [32] = Acute toxicity in C57BL/6 mouse assessed as histopathological changes in liver at 500 mg/kg, po administered as single dose and measured after 14 days; type: organism-based; settings: in vivo, 336 h, time 14 day
# [33] = Subacute toxicity in C57BL/6 mouse assessed as histopathological changes in kidney at 100 mg/kg, po administered daily for 14 days; type: organism-based; settings: in vivo, 336 h, time 14 day
# Candida albicans [34] = test: Induction of neutrophil-mediated antifungal immunity against Candida albicans SC5314 infected in mouse assessed as inhibition of CXCL2 protein expression in bone marrow at 50 to 100 mg/kg, po administered once a day for 3 days by ELISA; type: functional, organism-based; settings: dose 50-100 mg/kg, time 3.0 day
# [35] = Cytotoxicity against mouse neutrophils assessed as reduction in cell viability incubated for 16 hrs by flow cytometry analysis; type: toxicity, cell-based, Neutrophil
# Neutrophil [36] = test: Induction of apoptosis in mouse neutrophils assessed as dead cells at 40 uM incubated for 16 hrs by Annexin V-FITC/PI staining based flow cytometry analysis (reference value: 2.04%); type: toxicity, cell-based
# [37] = Acute toxicity in C57BL/6 mouse assessed as histopathological changes in lung at 500 mg/kg, po administered as single dose and measured after 14 days; type: organism-based; settings: in vivo, 336 h, time 14 day
# [38] = Subacute toxicity in C57BL/6 mouse assessed as change in lung weight at 100 mg/kg, po administered daily for 14 days; type: organism-based; settings: in vivo, 336 h, time 14 day
smiles,measurement,setting,value
C[C@@]1(O)CC[C@]23O[C@@]2(C)CC[C@@H]2[C@H](OC(=O)[C@H]2CS(=O)(=O)c2c(Cl)cccc2Cl)[C@@H]13,inhibition,[1],Active
same,Activity,[2],Non-Toxic
same,half-life,[3],10.2 min
same,Activity,[4],Non-Toxic
same,Activity,Candida albicans [5],Active
same,"viability at 16 h, 40 µM",[6],38%
same,Activity,Candida albicans [7],Active
same,bioavailability,[8],45.1%
same,Activity,[9],Non-Toxic
same,Activity,Candida albicans [10],inactive
same,Activity,[11],Non-Toxic
same,Activity,Candida albicans [12],Active
same,AUC(0-inf),[13],182 ng·h/mL
same,Cmax,[14],114 ng/mL
same,Tmax,[15],19.8 min
same,Tmax,[16],8.4 min
same,Activity,Neutrophil [17],30.8%
same,Activity,[18],Non-Toxic
same,Activity,[19],Non-Toxic
same,Activity,[20],Non-Toxic
same,AUC(0-inf),[21],75.4 ng·h/mL
same,Activity,[22],Non-Toxic
same,Activity,Neutrophil [23],29.3%
same,Activity,Neutrophil [24],2.24%
same,Activity,[25],Non-Toxic
same,Activity,[26],Non-Toxic
same,Activity,Candida albicans [27],Active
same,Cmax,[28],175 ng/mL
same,Activity,[29],Non-Toxic
same,Activity,[30],Non-Toxic
same,Activity,[31],Non-Toxic
same,Activity,[32],Non-Toxic
same,Activity,[33],Non-Toxic
same,Activity,Candida albicans [34],Active
same,IC50 at 16 h,[35],> 320 µM
same,Activity,Neutrophil [36],2.72%
same,Activity,[37],Non-Toxic
same,Activity,[38],Non-Toxic
